Assay results: ChEMBL document CHEMBL1129027, “4'-Methyl derivatives of 5-MOP and 5-MOA: synthesis, photoreactivity, and photobiological activity” (J Med Chem, 1996)
Active and inactive are the calls of the source. The calls are words filed in the database; no cut-off is given here.

Experiments:
[1] = test system: Nucleic Acid; experiment: Rate constant of the photoreaction between compound and DNA; assay type: nucleic-acid assay; conditions: Bos taurus
[2] = test system: HL-60; experiment: Compound was evaluated for cell growth inhibition against HL 60 cell line by irradiation in the presence of examined compound; assay type: functional, cell-based; conditions: Homo sapiens, HL-60, light or radiation study
[3] = test system: A-431; experiment: Compound was evaluated for cell growth inhibition against A 431 cell line by irradiation in the presence of examined compound; assay type: functional, cell-based; conditions: Homo sapiens, A-431, light or radiation study
[4] = organism: Cavia porcellus; experiment: Compound was tested for skin photosensitizing potency in guinea pig, after exposure to 50 microg cm e-2,and 20 kJ m e-2 of UVA; Absent; assay type: functional, organism-based
[5] = test system: HeLa; experiment: Compound was evaluated for cell growth inhibition against HeLa cell line by irradiation in the presence of examined compound; assay type: functional, cell-based; conditions: Homo sapiens, light or radiation study
[6] = test system: Nucleic Acid; experiment: Binding parameters of complexes between compound and DNA; assay type: nucleic-acid assay; conditions: Bos taurus
[7] = test system: Cavia porcellus; experiment: Compound was tested for skin photosensitizing potency in guinea pig, after exposure to 50 microg cm e-2,and 20 kJ m e-2 of UVA; strong(with edema); assay type: functional, organism-based
[8] = organism: Cavia porcellus; experiment: Compound was tested for skin photosensitizing potency in guinea pig, after exposure to 50 microg cm e-2,and 20 kJ m e-2 of UVA; Medium; assay type: functional, organism-based

SMILES	Rate constant [1]	IC50 [2]	IC50 [3]	IC50 [5]	K [6]	Formation of erythema [4]	Formation of erythema [7]	Formation of erythema [8]
COc1c2occc2cc2ccc(=O)oc12 [METHOXSALEN]		0.75 µM	2.48 µM	3.16 µM			Active	
COc1c2cc(C)c(=O)oc2cc2occ(C)c12	0.32 min⁻¹	2.72 µM	7.75 µM	6.83 µM	920 M⁻¹			Medium
COc1cc2occc2c2oc(=O)ccc12 [ISOBERGAPTENE]		> 10 µM	7.72 µM	> 10 µM		inactive		

These reach a lower IC50 [2]. Values come first.

Rate constant [1]	IC50 [2]	IC50 [3]	IC50 [5]	K [6]	SMILES	Formation of erythema [4]	Formation of erythema [7]	Formation of erythema [8]
2.1 min⁻¹	0.67 µM	1.35 µM	1.76 µM	630 M⁻¹	COc1c2c(C)coc2cc2oc(=O)cc(C)c12	inactive		
2.2 min⁻¹	0.69 µM	1.32 µM	1.26 µM	3700 M⁻¹	COc1cc2occ(C)c2c2oc(=O)cc(C)c12	inactive		
0.17 min⁻¹	0.59 µM	1.37 µM	1.06 µM	3100 M⁻¹	COc1cc2occ(C)c2c2oc(=O)c(C)cc12	inactive		
